Reference: patent US8404869B2, “Phenanthrenequinone-based compound and pharmaceutical composition containing the same for the treatment or prevention of disease involving metabolic syndrome” (Mazence Inc., priority 2007, dated 2013)

Key:
[1] = tested on: C57BL/6JL Lep ob/Lep ob mice; assay: Blood biomarkers (lipid, glucose, enzyme levels) in ob/ob mice; assay type: in vivo; set-up: unit not given here; conditions: after mixed-feed of 0.4% for 18 days
Description: (§1) 10-week-old C57BL/6JL Lep ob/Lep ob male mice having obesity characteristics and predisposition were purchased from Daehan Biolink Co., Ltd. (Chungchongbuk-do, Korea). Animals were raised in a breeding room maintained at a temperature of 23° C., 55% humidity, illumination of 300 to 500 lux, a 12-h light/dark (L/D) cycle, and ventilation of 10 to 18 times/hr. Animals were fed ad libitum pellets of Purina Rodent Laboratory Chow 5001 (purchased from Purina Mills Inc., St. Louis, Mo., USA) as a solid feed for experimental animals and tap water as drinking water. Mice were allowed to acclimate to new environment of the breeding room for two weeks and were then administered some pyrano-3,4-phenanthrenequinone or furano-3,4-naphthoquinone derivatives synthesized according to the present invention at mixed-feed of 0.4% for 18 days. Observation was made on changes in body weight, blood glucose and dietary intake, with respect to a time course of administration. After administration was complete, confirm changes in glucose, lipid and enzyme levels in blood.
(§2) For comparison, the same experiments were carried out for the subject (negative control group) to which the active ingredient was not administered, and subject (positive control group) to which Cryptotanshinone, extracted from Danshen by a method as set forth in Example 1 of the Korean Patent Application No. 2004-0116339 by the present applicant, was administered by the above-mentioned condition.

[2] = tested on: C57BL/6JL Lep ob/Lep ob mice; assay: Weight loss effects in obese mice (ob/ob); assay type: in vivo; conditions: mixed-feed of 0.4% for 18 days; for change in vivo at 0.4 % in feed: Mus musculus, po, 432 h, (Final BW−Initial BW)/Initial BW×100, read-out: Increase in BW; for Final BW: ob/ob male mice
Description: as §1, §2
Herein, ‘Increase in BW’ is calculated as the following; Increase in BW=(Final BW−Initial BW)/Initial BW×100

[3] = tested on: AMPK; assay: Determination of AMPK activation in differentiated C2C12 myoblast cells (SAMS peptide, [γ-32P]ATP); assay type: cell-based; conditions: C2C12 myoblast cells treated at 5 μg/ml; DMSO (0.5%) control = 1
Description: Myoblast cells, C2C12, were cultured in DMEM containing 10% bovine calf serum. When a cell density reached a range of about 85% to 90%, the culture medium was replaced with a medium containing 1% bovine calf serum to induce differentiation of cells. The thus-differentiated myoblast cells were treated with samples synthesized in Examples 1 through 16 at a concentration of 5 μg/ml, and compared with a control group. Enzymatic activity of AMPK was determined as follows. Firstly, C2C12 cells were lysed to obtain protein extracts and then ammonium sulfate was added to a final concentration of 30%, thereby precipitating proteins. Protein precipitates were dissolved in a buffer (62.5 mM Hepes, pH 7.2, 62.5 mM NaCl, 62.5 mM NaF, 1.25 mM Na pyrophosphate, 1.25 mM EDTA, 1 mM DTT, 0.1 mM PMSF, and 200 μM AMP). Thereafter, 200 μM SAMS peptide (HMRSAMSGLHLVKRR: the underlined serine residue is a phosphorylation site, as an AMPK phosphorylation site of acetyl-CoA carboxylase) and [γ-32P]ATP were added thereto and reactants were reacted for 10 minutes at 30° C. This was followed by spotting of the resulting reaction solution on p81 phosphocellulose paper. The p81 paper was washed with a 3% phosphoric acid solution and radioactivity thereof was measured. For each reaction condition, reactions involving no SAMS peptide were also conducted and basic values were subtracted from the thus-observed values.

| SMILES | GOT [1] | GPT [1] | HDL chol [1] | LDL chol [1] | T. chol [1] | glucose [1] | triglyceride [1] | change in vivo at 0.4 % in feed [2] | Final BW [2] | AMPK fold [3] |
| --- | --- | --- | --- | --- | --- | --- | --- | --- | --- | --- |
| COc1ccc2ccc3c(c2c1)C(=O)C(=O)C1=C3OC(C)C1 (centres unmarked) [Example 15, 8-Methoxy-2-methyl-1,2-dihydro-phenanthro[1,2-b]furan-10,11-dione] | 312.5 | 206.7 | 46.0 | 8.75 | 142.0 | 155 | 79.0 | -6.7% | 48.5 ± 1.5 g | 2.2 fold |
| Cc1cc2c(c3ccccc13)C(=O)C(=O)C1=C2OC(C)(C)CC1 [Example 16, 3,3,6-Trimethyl-2,3-dihydro-1H-4-oxa-chrysene-11,12-dione] | 342.5 | 197.5 | 47.0 | 12.00 | 140.0 | 135 | 82.3 | -7.2% | 48.0 ± 1.9 g | 1.9 fold |
